Laboratory results taken from the supplement of paper PMC10307832.

Key:
Experiment in all cases: relative viability (nuclei count vs DMSO), 5 days (fraction); higher = more cells survive
[1] = compound: COC1=CC=C(C=C1)CN2C=CC3=C2C=C(C=C3)C(=O)NO + COc1cc2c(Oc3ccc(NC(=O)C4(C(=O)Nc5ccc(F)cc5)CC4)cc3F)ccnc2cc1OCCCN1CCOCC1 [Foretinib] (partner 0.25 µM)
Outline: (§1)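 Five library-drug doses in √10 steps were combined with a fixed anchor-drug dose, or a single drug was given alone, by pin tool to lung cancer cell lines in 1536-well plates the day after seeding. Nuclei were stained and counted after 5 days. Relative viability is the nuclei count in treated wells over that in vehicle wells, taken as the median of duplicate plates.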

Veliparib + Pictilisib = compound: C[C@]1(c2nc3c(C(N)=O)cccc3[nH]2)CCCN1 [Veliparib] + CS(=O)(=O)N1CCN(Cc2cc3nc(-c4cccc5[nH]ncc45)nc(N4CCOCC4)c3s2)CC1 [Pictilisib] (partner 1 µM)
Outline: as §1

[2] = compound: COC1=CC=C(C=C1)CN2C=CC3=C2C=C(C=C3)C(=O)NO + C[C@@H](Oc1cc(-c2cnn(C3CCNCC3)c2)cnc1N)c1c(Cl)ccc(F)c1Cl [Crizotinib] (partner 1 µM)
Outline: as §1

[3] = compound: COC1=CC=C(C=C1)CN2C=CC3=C2C=C(C=C3)C(=O)NO + C[C@]1(O)C[C@@H](c2nc(-c3ccc4ccc(-c5ccccc5)nc4c3)c3c(N)nccn32)C1 [Linsitinib] (partner 1 µM)
Outline: as §1

Row | Cell Line | relative viability ([1]; first compound 0.08 µM) | relative viability ([1]; first compound 0.253 µM) | relative viability ([1]; first compound 0.8 µM) | relative viability ([1]; first compound 2.53 µM) | relative viability ([1]; first compound 8 µM) | relative viability (Veliparib + Pictilisib; first compound 0.02 µM) | relative viability (Veliparib + Pictilisib; first compound 0.06325 µM) | relative viability (Veliparib + Pictilisib; first compound 0.2 µM) | relative viability (Veliparib + Pictilisib; first compound 0.6325 µM) | relative viability (Veliparib + Pictilisib; first compound 2 µM) | relative viability ([2]; first compound 0.08 µM) | relative viability ([2]; first compound 0.253 µM) | relative viability ([2]; first compound 0.8 µM) | relative viability ([2]; first compound 2.53 µM) | relative viability ([2]; first compound 8 µM) | relative viability ([3]; first compound 0.08 µM) | relative viability ([3]; first compound 0.253 µM) | relative viability ([3]; first compound 0.8 µM) | relative viability ([3]; first compound 2.53 µM) | relative viability ([3]; first compound 8 µM)
1 | NCI-H2342 | 0.997 | 0.986 | 0.978 | 0.956 | 1.02 |  |  |  |  |  |  |  |  |  |  |  |  |  |  | 
2 | HOP-62 | 0.74 | 1.14 | 1.08 | 1.01 | 1.1 | 0.705 | 0.79 | 0.818 | 0.548 | 0.738 | 0.826 | 0.833 | 1.01 | 1.01 | 0.959 | 0.681 | 1.06 | 1.01 | 0.924 | 1.04
3 | BEN | 0.604 | 0.459 | 0.454 | 0.641 | 0.479 | 0.517 | 0.572 | 0.594 | 0.577 | 0.628 | 0.756 | 0.814 | 0.894 | 0.869 | 0.851 | 0.87 | 0.875 | 0.904 | 0.869 | 0.907
4 | NCI-H647 | 0.707 | 1.34 | 1.09 | 1.2 | 1.38 | 0.347 | 0.368 | 0.436 | 0.447 | 0.265 | 0.868 | 1 | 1.04 | 0.914 | 1.01 | 0.886 | 1.01 | 1.2 | 1.28 | 1.02
5 | NCI-H2085 | 0.906 | 0.979 | 1.12 | 0.84 | 0.991 | 0.468 | 0.463 | 0.39 | 0.415 | 0.396 | 0.804 | 0.944 | 0.853 | 0.928 | 0.926 | 0.794 | 0.921 | 0.931 | 0.925 | 0.934
6 | NCI-H2347 |  | 0.527 | 0.991 | 0.775 | 0.575 | 0.666 | 0.612 | 0.668 | 0.707 | 0.724 | 0.666 | 0.7 | 0.856 | 0.672 | 0.655 | 0.697 | 0.918 | 1.03 | 0.982 | 0.877
7 | NCI-H2228 |  | 1 | 0.933 | 0.857 | 0.609 | 0.464 | 0.538 | 0.378 | 0.463 | 0.425 | 0.45 | 0.549 | 0.535 | 0.492 | 0.423 | 0.77 | 0.733 | 0.971 | 0.578 | 0.58
8 | NCI-H2009 | 0.931 | 1.3 | 1.17 | 1.27 | 1.24 | 0.734 | 0.777 | 0.704 | 0.786 | 0.813 | 1.02 | 0.993 | 0.995 | 0.967 | 1.06 | 1.21 | 1.17 | 1.13 | 1.21 | 1.19
9 | IA-LM | 0.997 | 1.33 | 1.08 | 1.2 | 1.06 | 0.444 | 0.364 | 0.374 | 0.306 | 0.367 | 0.618 | 0.806 | 0.834 | 1.02 | 0.694 | 0.613 | 0.587 | 0.492 | 0.698 | 0.663
10 | NCI-H358 |  | 0.684 | 0.801 | 0.575 | 0.57 |  | 0.37 | 0.38 | 0.315 | 0.342 |  | 0.645 | 0.546 | 0.597 | 0.395 |  | 0.903 | 0.792 | 0.742 | 0.851
11 | SK-LU-1 | 0.756 | 0.766 | 0.799 | 0.86 | 0.74 | 0.624 | 0.573 | 0.483 | 0.585 | 0.536 | 0.929 | 1.17 | 0.992 | 1.01 | 0.749 | 0.998 | 1.3 | 1.08 | 1.29 | 0.888
12 | LCLC-97TM1 | 0.444 | 0.992 | 0.96 | 0.942 | 0.923 | 0.155 | 0.224 | 0.215 |  | 0.235 |  | 0.285 | 0.395 | 0.259 | 0.237 |  | 0.212 | 0.225 | 0.206 | 0.156
13 | NCI-H322M |  | 1.03 | 1.06 | 0.984 | 0.882 | 0.496 | 0.459 | 0.573 | 0.525 | 0.321 |  | 0.816 | 0.98 | 0.851 | 0.793 |  | 0.934 | 0.931 | 0.946 | 0.926
14 | NCI-H1623 | 0.649 | 0.82 | 0.866 | 0.859 | 0.766 |  |  |  |  |  |  |  |  |  |  |  |  |  |  | 
15 | EMC-BAC-2 | 0.788 | 1.03 | 0.98 | 0.977 | 0.922 | 0.483 | 0.542 | 0.569 | 0.524 | 0.541 | 0.224 | 0.828 | 0.746 | 0.708 | 0.687 | 0.686 | 0.867 | 0.839 | 0.814 | 0.839
16 | NCI-H1355 |  | 0.959 | 0.928 | 1.02 | 0.962 |  | 0.329 | 0.477 | 0.406 | 0.472 | 0.913 | 1.2 | 1.02 | 1.12 | 0.977 | 0.792 | 0.826 | 0.812 | 0.895 | 0.809
17 | Calu-6 | 0.419 | 0.853 | 0.851 | 0.889 | 0.725 | 1.02 | 0.887 | 0.892 | 0.816 | 0.85 | 0.433 | 0.759 | 0.773 | 0.894 | 0.71 |  | 0.961 | 0.949 | 0.906 | 0.902
18 | NCI-H661 |  | 1.02 | 1.03 | 0.999 | 0.927 | 0.397 | 0.317 | 0.354 | 0.359 | 0.393 |  | 0.814 | 1.08 | 1.05 | 1 |  | 0.525 | 0.555 | 0.521 | 0.46
